From patent US20240335483A1, “NEW METHOD TO TREAT AUTOIMMUNE DISEASES” (INSTITUT NATIONAL DE LA SANTÉ ET DE LA RECHERCHE MÉDICALE, priority 2021, published 2024)
Entries after “also recorded” stand apart in the source; their conditions may differ.

Assays:
Type in all cases: in vivo, mouse
NOD mice = test: Spontaneous diabetes incidence
Protocol: Female NOD, BALB/c, C57BL/6J, C57BL/6J camp−/− in different ages were used, bred and housed in specific pathogen-free conditions. Recombinant mouse CRAMP1-39 and scrambled (sc)CRAMP1-39 were produced under aseptic conditions and provided after endotoxin removal processing (Innovagen). Newborn NOD mice were treated by intra-colonic treatment between 10 and 21 days of age every 3 days with CRAMP or scCRAMP (10 μg in 10 μL/mouse/injection) or vehicle (PBS-1% H2O). For blocking TLR experiments, newborn NOD mice were treated between 7 and 14 days of age every 3 days with TLR2 inhibitor CU CTP22 (25 μg in 10 μL/mouse/injection) or TLR4 inhibitor TAK242 (25 μg in 10 μL/mouse/injection) or with TLR5 inhibitor TH1020 (20 μg in 10 μL/mouse/injection) or with vehicle (PBS 1% DMSO). All inhibitors are from Tocris. For modulating IFNα experiment, newborn NOD mice were treated between 7 and 14 days of age every 3 days with anti-IFNα receptor mAb (200 μg in 10 μL/mouse/injection) (BioXcell) or equivalent amount of isotype control (mouse IgGI) or gardiquimod (50 μg in 10 μL/mouse/injection) or vehicle (PBS-1% H2O). For CRAMP-expressing probiotic experiment, pregnant NOD mice were given CRAMP-expressing Lactococcus lactis or conventional L. lactis ([…] colony forming units (cfu) in 100 μL PBS/mice) by oral gavage one day before delivery. For cross-fostering experiments, NOD pups were adopted immediately at birth by recipient mice (C57BL/6, BALB/c, CRAMP-treated NOD mice or NOD mice), that delivered the same day and pups from the two litters were maintained in the same cage. All animal experimental protocols were approved by the ethic committee for animal experimentation (APAFIS #3535-2015092416202090).
NOD mice were treated as described above with CRAMP or scCRAMP, anti-IFNαR mAb, gardiquimod or were born from CRAMP-expressing L. lactis treated NOD mice or were cross-fostered by CRAMP-treated NOD mice. […]
Diabetes incidence was plotted according to the Kaplan-Meier method. […] All data were analyzed using GraphPad Prism v6 software.

Treg cells = test: Flow cytometry of regulatory T cells in tissues
Protocol: (§1) Pancreata were perfused with a solution of collagenase P in HBSS-1% HEPES (0.75 mg.ml-1, Roche), then dissected free from surrounding tissues. Pancreata were digested at 37° C. for 8 min. Digestion was stopped by adding HBSS-10% FCS-1% EDTA followed by extensive washes. For flow cytometry analysis, islets were isolated on a discontinuous Ficoll® PM400 gradient (Sigma-Aldrich) and then isolated islets were handpicked to exclude contaminations from intrapancreatic lymph nodes. Cells were released from the islets by incubation at 37° C. for 6 min in non-enzymatic cell dissociation solution (Sigma-Aldrich). For RT-qPCR, to avoid potential contamination by exocrine tissue, islets were purified by handpicking in 3 consecutive baths of HBSS-10% FCS supplemented with 1% DNAse 1.
Immune cells from the colon were isolated using the Lamina Propria Dissociation Kit from Miltenyi (#130-097-410), combined with gentleMACS™ Octo dissociator with heaters (#130-096-427) according to the manufacturer's instructions.
Single cell suspensions were prepared from various tissues, surface staining was performed after FcγRII/III blocking (anti-CD16/CD32) for 5 min at 4° C. and were surface stained for 30 min at 4° C. Staining buffer was PBS containing 2% FCS, 0.5% EDTA and 0.1% sodium azide. […] Stained cells were analyzed on a Becton Dickinson Fortessa flow cytometer. Data were analyzed with Flowjo™ v10 software.

TLR4 ligands = test: TLR4 ligand levels in colon extract (HEK-blue TLR reporter cells); details: NOD mice, intracolonic CRAMP treatment
Protocol: (§2) Colons from 2-week-old mice were recovered in 100 μL PBS, cut in some pieces and homogenized by vortexing. Cell-free supernatant was recovered after centrifugation at 10 000 g for 10 min. A 100-fold dilution was used to measure TLR2 and TLR4 ligand levels in the supernatants using HEK-blue™ TLR reporter cells ([…], #hkb-mtlr2 and #hkb-mtlr4) according to the manufacturer protocol.

microbiota = test: 16S rDNA gene sequencing of microbiota composition; details: 5 weeks of age, after intracolonic CRAMP in newborn NOD mice
Protocol: Stools were recovered from 5 mice from 5 independent cages per group, and were stored at −80° C. in DNA/RNA Shield™ (Zymo Research, #R1100-250) immediately after emission before shipment to Zymo Research (ZymoBIOMICS Services). For CRAMP treatment experiments, pups from different litters were randomly mixed and then separate before treatment with CRAMP or scCRAMP. The samples were processed and analyzed with the ZymoBIOMICS® Targeted Sequencing Service for Microbiome Analysis (Zymo Research, Irvine, CA). DNA Extraction: One of three different DNA extraction kits was used depending on the sample type and sample volume. In most cases, the ZymoBIOMICS® DNA Miniprep Kit (Zymo Research, Irvine, CA) was used. For low biomass samples, such as skin swabs, the ZymoBIOMICS® DNA Microprep Kit (Zymo Research, Irvine, CA) was used as it permits for a lower elution volume, resulting in more concentrated DNA samples. For a large sample volume, the ZymoBIOMICS@-96 MagBead DNA Kit (Zymo Research, Irvine, CA) was used to extract DNA using an automated platform. Targeted Library Preparation: Bacterial 16S ribosomal RNA gene targeted sequencing was performed using the Quick-16S™ NGS Library Prep Kit (Zymo Research, Irvine, CA). The bacterial 16S primers amplified the V1-V2 or V3-V4 region of the 16S rRNA gene. These primers have been custom-designed by Zymo Research to provide the best coverage of the 16S gene while maintaining high sensitivity. Fungal ITS gene targeted sequencing was performed using the Quick-16S™ NGS Library Prep Kit with custom ITS2 primers substituted for 16S primers. […] The final PCR products were quantified with qPCR fluorescence readings and pooled together based on equal molarity. The final pooled library was cleaned up with the Select-a-Size DNA Clean & Concentrator™ (Zymo Research, Irvine, CA), then quantified with TapeStation®(Agilent Technologies, Santa Clara, CA) and Qubit® (Thermo Fisher Scientific, Waltham, […]). […] Bioinformatics Analysis: Unique amplicon sequences were inferred from raw reads using the DADA2 pipeline. […]

[1] = tested on: inflammatory and regulatory cytokines in colon; test: Cytokine expression in colon (RT-qPCR)
Protocol: (§3) Total RNA was isolated using the Nucleospin RNA XS kit (Macherey-Nagel) from a minimum of 100 handpicked islets per mouse or using Nucleospin RNA kit (Macherey-Nagel) for colon tissue. RNA was reverse transcribed to synthesized cDNA using the high capacity cDNA reverse transcription kit (ThermoFisher) and measurements were performed by qPCR using Power SYBR® Green (ThermoFisher) on a 7900HT Fast System (Applied Biosystems). Resulting levels of fluorescence were submitted to relative quantification by normalization against a housekeeping gene (GAPDH) and expressed as 2-(ΔCT) values.

[2] = tested on: IGRP206-214-specific CD8+ T cells; test: Flow cytometry of diabetogenic IGRP206-214-specific CD8+ T cells; details: 12-week-old NOD mice after intracolonic CRAMP as newborns
Protocol: as §1
Single cell suspensions were prepared from various tissues, surface staining was performed after FcγRII/III blocking (anti-CD16/CD32) for 5 min at 4° C. and were surface stained for 30 min at 4° C. Staining buffer was PBS containing 2% FCS, 0.5% EDTA and 0.1% sodium azide. For detection of the subsets of conventional dendritic cells, cells suspension were surface stained with anti-CD45, -TCRβ, -CD19-CD11c, -F4/80, -CD103, -CD11b. […] Stained cells were analyzed on a Becton Dickinson Fortessa flow cytometer. Data were analyzed with Flowjo™ v10 software.

type I IFN signature = test: Colonic type I IFN signature (RNAseq, RT-qPCR)
Protocol: as §3
Colon tissue was recovered from 5 mice from 5 independent cages per group. Total RNA were isolated from colon using the RNeasy Kit (QIAGEN) including a DNAse treatment step. RNA quality was assessed using RNA Screen Tape 6000 Pico LabChips with the Tape Station (Agilent Technologies) and RNA concentration was measured by spectrophometry using the Xpose (Trinean). RNAseq libraries were prepared starting from 1 μg of total RNA using the TruSeq Stranded mRNA LT Sample Prep Kit (Illumina) as recommended by the manufacturer. […] A mean of 23 million of paired-end reads was produced per library sample (between 21 to 25 million of passing filter reads). The generated data were analyzed using the Ingenuity Pathway Analysis software (Qiagen).

TLR2 ligands = test: TLR2 ligand levels in colon extract (HEK-blue TLR reporter cells); details: NOD mice, intracolonic CRAMP treatment
Protocol: as §2

| Compound | diabetes incidence (NOD mice; gardiquimod, intracolonic, newborn female NOD mice) | frequency of pancreatic LAP+ Treg cells (Treg cells; male NOD mice, intracolonic gardiquimod at 10 days of age, pancreatic islets at 12 weeks of age) | level of TLR4 ligands in the colon (TLR4 ligands) | abundance of the genera Lactobacillus and Bifidobacterium (microbiota) | abundance of the genus Alistipes (microbiota) | microbiota composition (microbiota; control scCRAMP) | cytokine profile in the colon ([1]; CRAMP treatment of adult NOD mice) | expression of inflammatory cytokines in colon ([1]; adult NOD colon after CRAMP treatment of newborn NOD mice) | development (incidence) of diabetes (NOD mice; female NOD mice, intracolonic CRAMP every 3 days from 10 to 21 days of age, control scCRAMP, FIG. 1A) | incidence of diabetes in adopted NOD mice (NOD mice; newborn NOD mice from untreated dams cross-fostered to NOD dams treated by CRAMP between 10 and 21 days of age, FIG. 1) | frequency and absolute number of IGRP206-214-specific CD8+ effector T cells [2] | type I IFN signature in the colon (type I IFN signature; colonic CRAMP treatment of 10-day-old NOD mice) | type I IFN signature in the newborns (type I IFN signature; newborn NOD mice cross-fostered by NOD dams previously treated with CRAMP at 10 days of age) | level of TLR2 ligands in the colon (TLR2 ligands) | frequency and absolute number of Treg cells (Treg cells; prediabetic 12-week-old NOD mice after intracolonic CRAMP as newborns, pancreas, colon, PLN, MLN, spleen) |
| --- | --- | --- | --- | --- | --- | --- | --- | --- | --- | --- | --- | --- | --- | --- | --- |
| CCNCc1nc2c(N)nc3ccccc3c2n1CC(C)(C)O [gardiquimod, reference compound] | increased | decreased the frequency of pancreatic LAP+ Treg cells in the adult NOD mice |  |  |  |  |  |  |  |  |  |  |  |  |  |
| CRAMP |  |  | reduced the levels of TLR2 and TLR4 ligands in the colon | increased abundance | decreased abundance | changed microbiota composition in the adult mice | inefficient at changing the cytokine profile in the colon | prevented the overexpression of inflammatory cytokines in the adult NOD colon | significantly prevented the development of diabetes | decrease of diabetes development; also recorded: decreased incidence of diabetes in the adopted NOD mice | decreased in the pancreas and PLN in the adult mice | reduced | prevented the aberrant type I IFN signature in the newborns | reduced the levels of TLR2 and TLR4 ligands in the colon | increased the frequency, but not the absolute number, of Treg cells in the pancreas and colon of adult NOD mice |
